As usually defined, the EC50 is the concentration at which the effect is half-maximal. The AUC(0-t) is the area under the concentration-time curve up to a stated or last time point. A word on the clearance: it is a measure of how efficiently the substance is removed, as volume per time. In general, half-life refers to how long it takes for the measured level to halve. As usually defined, the Cmax is the maximum level reached in the sampled fluid or tissue. Usually Tmax stands for the time from dosing to the highest level.

This is an account of results in EP4745128A1, “COMPOUND, PHARMACEUTICAL COMPOSITION COMPRISING SAME, AND USE THEREOF” (Shenzhen Zhongge Biological Technology Co., Ltd., priority 2023, dated 2025).

The test system of one series is model animals. The note with it: after three days of oral administration; cited from earlier work.
Series [1] has as its system HEK293T/17-ATF4 uORF-Luc-Puro monoclonal cells. Briefly: Cellular activity assay: ATF4 luciferase reporter, thapsigargin-induced stress. The class given is cell-based. The note with it: Homo sapiens, HEK-293T; ATF4 reporter expression; 50 nM thapsigargin, 6 h incubation. From the text: The ATF4 luciferase reporter plasmid consists of two components: the 5' untranslated region sequence of the ATF4 gene and the luciferase encoding sequence. Specifically, the ATF4 5' untranslated region sequence (NCBI Database accession number BC022088.2) containing two upstream open reading frames (uORFs) and the firefly luciferase encoding gene were cloned into the pLVX-Puro vector (Unibio, VT1465). The packaging plasmids for lentivirus are psPAX2 (Unibio, VT1444) and pMD2.G (Unibio, VT1443). The three plasmids above were co-transfected into HEK293T/17 cells using X-tremeGENE 9 DNA transfection reagent, and the lentivirus-containing culture medium was collected 48 hours post-transfection. The HEK293T/17 cells transduced with the lentivirus were selected using 1 µg/mL puromycin, followed by obtaining a monoclonal cell line via limited dilution.
Using this cell line, the translational regulation of ATF4 can be detected via […], and the activity of the eIF2B activator can be tested. The specific experimental procedure was as follows: Seed 6,000 HEK293T/17-ATF4 uORF-Luc-Puro monoclonal cells in a 384-well plate and allow the cells to adhere overnight. The test compounds were dissolved in DMSO and added along with 50 nM thapsigargin into the cell culture medium, followed by incubation for 6 h. Thapsigargin was used to induce cellular stress, thereby upregulating translation of the ATF4 protein. After 6 hours of treatment, cells were lysed using the One-Glo Luciferase Assay Kit (Promega #E6120), then the luminescence values were measured using the LUM program of the EnVision 2104 plate reader.
The relative expression level of the ATF4 reporter gene (ATF4 reporter expression %) was calculated as follows: • ATF4 reporter expression %=(ave_sample-ave_vc)/(ave_pc-ave_vc)*100%. • ave_vc: mean signal value of negative control • ave_pc: mean signal value of positive control • ave_sample: mean signal value of sample
The EC50 value was calculated by fitting a dose-response curve: • The correspondence between the relative expression level of the ATF4 reporter gene and the compound concentration was fitted using the nonlinear regression log(inhibitor) vs. response - variable slope (four parameters) approach in GraphPad 9 software. • X axis: log of compound concentration; Y: relative expression level of ATF4 reporter gene. • Y = Bottom + (Top−Bottom)/(1+10^(∧)((LogEC50−X)*HillSlope)) [formula]
On the technique in general: A reporter such as luciferase makes a cellular process visible.

Series [2] can be described thus: Pharmacokinetic assessment in mice. The class given is in vivo. The note with it: plasma. On the procedure:
The test compound was dissolved in a solvent to prepare a clear solution or homogeneous suspension. Three mice per group were administered 1 mg/kg intravenously in the tails and 30 mg/kg orally (PO). Blood samples were collected at 0.083 h, 0.25 h, 0.5 h, 1 h, 2 h, 4 h, 8 h, and 24 h post intravenous administration, and at 0.25 h, 0.5 h, 1 h, 2 h, 4 h, 6 h, 8 h, and 24 h post oral administration. Plasma samples were centrifuged to obtain the supernatant, which was prepared as samples for quantitative analysis by LC/MS/MS. Table 2 PK Properties of Exemplary Compound 3 in Mice

For series [3] the following is noted: Phase 1 data from healthy subjects; cited from earlier work.
A further series has as its system mouse models. The note with it: cited from earlier work.

As for `NC(CO)(CO)CO.O=C(COc1ccc(Cl)c(F)c1)NC12CCC(NC(=O)COc3ccc(Cl)c(F)c3)(CC1)[C@@H](OCOP(=O)([O-])O)C2.[Na+]` [ABBV-CLS-7262], the brain function result in the series on model animals was “restored to youthful levels”.

In the case of `O=C(COc1ccc(Cl)c(F)c1)N[C@H]1CC[C@H](Nc2nccnc2O[C@H]2C[C@@H](OC(F)(F)F)C2)CC1` [Compound 1], the EC50 in series [1] lay within 10 to 100 nM.

Regarding `O=C(COc1ccc(Cl)c(F)c1)N[C@H]1CC[C@H](Nc2ncccc2O[C@H]2C[C@@H](OC(F)(F)F)C2)CC1` [Compound 2], the EC50 in series [1] is greater than 100 nM.

In series [2] (mouse IV (1 mg/kg)), `O=C(CO[C@H]1C[C@@H](OC(F)(F)F)C1)NC12CC(Nc3nccnc3O[C@H]3C[C@@H](OC(F)(F)F)C3)(C1)C2` [Compound 3] had an AUC(0-t) of 6.32 µg·h/mL, a C0 of 2620 ng/mL, a clearance of 2.49 mL/min/kg and a half-life of 7.37 h. In series [2] (mouse IV (1 mg/kg), read-out: Vss), the Vd was 1410 L/kg. For the same compound, in series [2] (mouse PO (30 mg/kg)), the AUC(0-t) was 217 µg·h/mL, the Cmax is 20100 ng/mL, the Tmax was 2.33 h and the bioavailability stood at 114%. In series [2] (mouse PO (30 mg/kg)), the half-life is 8.52 h. Further, the EC50 in series [1] fell in the range of 1 to 10 nM.

As to `FC(F)(F)OC1CN(c2nnc([C@H]3CC[C@H](Nc4nccnc4O[C@H]4C[C@@H](OC(F)(F)F)C4)CC3)o2)C1` [Compound 4], in series [1], the EC50 is greater than 100 nM.

`O=C(CO[C@H]1C[C@@H](OC(F)(F)F)C1)N[C@H]1CC[C@H](Nc2nccnc2O[C@H]2C[C@@H](OC(F)(F)F)C2)CC1` [Compound 5] returned a 50% effective concentration (EC50) in series [1] greater than 100 nM.

For `O=C(COc1ccc(Cl)cc1)NC12CC(c3nnc([C@H]4C[C@@H](OC(F)(F)F)C4)o3)(C1)C2` [DNL-343], the safety and tolerability entry in series [3] is “safe and well-tolerated”.

Turning to `O=C(COc1ccc(Cl)cc1)NC1CCC(NC(=O)COc2ccc(Cl)cc2)CC1` (stereo not drawn) [ISRIB], the long-term memory entry in the series on mouse models is listed as “improve long-term memory”.
